System: VEGF
Assay: Hypoxia-inducible endogenous VEGF expression, VEGF ELISA assay
Type: cell-based
Details: HeLa cells, hypoxic conditions (1% O2, 5% CO2), VEGF in conditioned media
Experimental: The ability of the compounds of the invention to modulate hypoxia-inducible endogenous VEGF expression may be analyzed as follows. VEGF protein levels may be monitored by an ELISA assay (R&D Systems). Briefly, HeLa cells may be cultured for 24-48 hours under hypoxic conditions (1% O2, 5% CO2, balanced with nitrogen) in the presence or absence of a compound of the invention. The conditioned media may then be assayed by ELISA, and the concentration of VEGF calculated from the standard ELISA curve of each assay.
A dose-response analysis may be performed using the ELISA assay and conditions described above. The conditions for the dose-response ELISA are analogous to those described above. A series of, e.g., seven different concentrations may be analyzed. In parallel, a dose-response cytotoxicity assay may be performed using CellTiter Glo (Promega) under the same conditions as the ELISA to ensure that the inhibition of VEGF expression was not due to the cytotoxicity. Dose-response curves may be plotted using percentage inhibition versus concentration of the compound, and EC50 and CC50 values may be generated for each compound with the maximal inhibition set as 100% and the minimal inhibition as 0%.

EC50 (Homo sapiens, HeLa) [nM]	EC50 [nM]	SMILES
< 8		CC(=O)N1CCN(CCCOc2ccc(C3c4[nH]c5ccc(Br)cc5c4CC4C(=O)N(C(C)C)C(=S)N43)cc2)CC1 (centres unmarked) [Compound 152]
8 to 40		CC(C)N1C(=O)C2Cc3c([nH]c4ccc(Br)cc34)C(c3ccc(OCCCN4CCOCC4)cc3)N2C1=S (centres unmarked) [Compound 153]
< 8		CCN(CC)CCCOc1ccc(C2c3[nH]c4ccc(Br)cc4c3CC3C(=O)N(C(C)C)C(=S)N32)cc1 (centres unmarked) [Compound 154]
< 8		CC(C)NCCCOc1ccc(C2c3[nH]c4ccc(Br)cc4c3CC3C(=O)N(C(C)C)C(=S)N32)cc1 (centres unmarked) [Compound 155]
8 to 40		COCCN(CCCOc1ccc(C2c3[nH]c4ccc(Br)cc4c3CC3C(=O)N(C(C)C)C(=S)N32)cc1)CCOC (centres unmarked) [Compound 156]
40 to 200		CC(C)N1C(=O)C2Cc3c([nH]c4ccc(Br)cc34)C(c3ccc(OCCCN4CCSCC4)cc3)N2C1=S (centres unmarked) [Compound 157]
< 8		COCCN(C)CCCOc1ccc(C2c3[nH]c4ccc(Br)cc4c3CC3C(=O)N(C(C)C)C(=S)N32)cc1 (centres unmarked) [Compound 158]
< 8		CC(C)N1C(=O)C2Cc3c([nH]c4ccc(Br)cc34)C(c3ccc(OCCCN4CCN(C)CC4)cc3)N2C1=S (centres unmarked) [Compound 159]
8 to 40		CC(C)N1C(=O)C2Cc3c([nH]c4ccc(Br)cc34)C(c3ccc(OCCCn4ccnc4)cc3)N2C1=S (centres unmarked) [Compound 160]
< 8		COc1ccc(C2c3[nH]c4ccc(Br)cc4c3CC3C(=O)N(c4cccc(C(F)(F)F)c4)C(=S)N32)cc1 (centres unmarked) [Compound 162]
< 8		COc1ccc(C2c3[nH]c4ccc(Br)cc4c3CC3C(=O)N(c4ccc(C(F)(F)F)cc4)C(=S)N32)cc1 (centres unmarked) [Compound 163]
40 to 200		COc1ccc(C2c3[nH]c4ccc(Br)cc4c3CC3C(=O)N(c4ccccc4Cl)C(=S)N32)cc1 (centres unmarked) [Compound 164]
< 8		COc1ccc(C2c3[nH]c4ccc(Br)cc4c3CC3C(=O)N(c4cccc(Cl)c4)C(=S)N32)cc1 (centres unmarked) [Compound 165]
8 to 40		COc1ccc(C2c3[nH]c4ccc(Br)cc4c3CC3C(=O)N(c4ccccc4F)C(=S)N32)cc1 (centres unmarked) [Compound 166]
< 8		COc1ccc(C2c3[nH]c4ccc(Br)cc4c3CC3C(=O)N(c4cccc(F)c4)C(=S)N32)cc1 (centres unmarked) [Compound 167]
< 8		COc1ccc(C2c3[nH]c4ccc(Br)cc4c3CC3C(=O)N(c4ccc(F)cc4)C(=S)N32)cc1 (centres unmarked) [Compound 168]
40 to 200		COc1ccc(C2c3[nH]c4ccc(Br)cc4c3CC3C(=O)N(c4ccccc4C)C(=S)N32)cc1 (centres unmarked) [Compound 169]
< 8		COc1ccc(C2c3[nH]c4ccc(Br)cc4c3CC3C(=O)N(c4cccc(C)c4)C(=S)N32)cc1 (centres unmarked) [Compound 170]
< 8		COc1ccc(C2c3[nH]c4ccc(Br)cc4c3CC3C(=O)N(c4ccc(C)cc4)C(=S)N32)cc1 (centres unmarked) [Compound 171]
< 8		COc1ccc(C2c3[nH]c4ccc(Br)cc4c3CC3C(=O)N(c4ccc(F)cc4F)C(=S)N32)cc1 (centres unmarked) [Compound 172]
< 8		COc1ccc(C2c3[nH]c4ccc(Br)cc4c3CC3C(=O)N(c4ccc(Cl)c(C(F)(F)F)c4)C(=S)N32)cc1 (centres unmarked) [Compound 173]
40 to 200		COc1ccc(C2c3[nH]c4ccc(Br)cc4c3CC3C(=O)N(c4ccc(F)cc4Cl)C(=S)N32)cc1 (centres unmarked) [Compound 174]
< 8		COc1ccc(C2c3[nH]c4ccc(Br)cc4c3CC3C(=O)N(c4cccc(Br)c4)C(=S)N32)cc1 (centres unmarked) [Compound 175]

EC50 (Homo sapiens, HeLa) [nM]	EC50 [nM]	SMILES
40 to 200		COc1ccc(C2c3[nH]c4ccc(Br)cc4c3CC3C(=O)N(c4ccc(OC)cc4C)C(=S)N32)cc1 (centres unmarked) [Compound 177]
40 to 200		COc1ccc(C2c3[nH]c4ccc(Br)cc4c3CC3C(=O)N(C(=O)c4ccccc4)C(=S)N32)cc1 (centres unmarked) [Compound 178]
< 8		COc1ccc(C2c3[nH]c4ccc(Br)cc4c3CC3C(=O)N(c4ccc5c(c4)OCO5)C(=S)N32)cc1 (centres unmarked) [Compound 179]
< 8		COc1ccc(C2c3[nH]c4ccc(Br)cc4c3CC3C(=O)N(Cc4ccco4)C(=S)N32)cc1 (centres unmarked) [Compound 180]
< 8		COc1ccc(C2c3[nH]c4ccc(Br)cc4c3CC3C(=O)N(CCc4ccccc4)C(=S)N32)cc1 (centres unmarked) [Compound 181]
< 8		COc1ccc(C2c3[nH]c4ccc(Br)cc4c3CC3C(=O)N(c4cccc(OC(C)=O)c4)C(=S)N32)cc1 (centres unmarked) [Compound 182]
40 to 200		COc1ccc(C2c3[nH]c4ccc(Br)cc4c3CC3C(=O)N(c4ccccc4C(C)C)C(=S)N32)cc1 (centres unmarked) [Compound 183]
< 8		CC(C)N1C(=O)C2Cc3c([nH]c4ccc(Br)cc34)C(c3ccc(OCCCn4cncn4)cc3)N2C1=S (centres unmarked) [Compound 184]
	< 8	COc1ccc(C2c3[nH]c4ccc(Br)cc4c3CC3C(=O)N(C4CCCCC4)C(=S)N32)cc1 (centres unmarked) [Compound 185]
	< 8	COc1ccc(C2c3[nH]c4ccc(Br)cc4c3CC3C(=O)N(C4CCCCC4)C(=S)N32)cc1 (centres unmarked) [Compound 186]
	> 1000	COc1ccc(C2c3[nH]c4ccc(Br)cc4c3CC3C(=O)N(C4CCCCC4)C(=S)N32)cc1 (centres unmarked) [Compound 187]
< 8		O=C1C2Cc3c([nH]c4ccc(Br)cc34)C(c3ccc(OCCCCl)cc3)N2C(=S)N1c1ccc(Cl)cc1 (centres unmarked) [Compound 188]
8 to 40		O=C1C2Cc3c([nH]c4ccc(Br)cc34)C(c3ccc(OCCCN4CCCC4)cc3)N2C(=S)N1c1ccc(Cl)cc1 (centres unmarked) [Compound 189]
8 to 40		O=C1C2Cc3c([nH]c4ccc(Br)cc34)C(c3ccc(OCCCN4CCCCC4)cc3)N2C(=S)N1c1ccc(Cl)cc1 (centres unmarked) [Compound 190]
< 8		O=C1C2Cc3c([nH]c4ccc(Br)cc34)C(c3ccc(OCCCN4CCOCC4)cc3)N2C(=S)N1c1ccc(Cl)cc1 (centres unmarked) [Compound 192]
8 to 40		CCN(CC)CCCOc1ccc(C2c3[nH]c4ccc(Br)cc4c3CC3C(=O)N(c4ccc(Cl)cc4)C(=S)N32)cc1 (centres unmarked) [Compound 193]
8 to 40		CC(C)NCCCOc1ccc(C2c3[nH]c4ccc(Br)cc4c3CC3C(=O)N(c4ccc(Cl)cc4)C(=S)N32)cc1 (centres unmarked) [Compound 194]
< 8		O=C1C2Cc3c([nH]c4ccc(Br)cc34)C(c3ccc(OCCCN4CCSCC4)cc3)N2C(=S)N1c1ccc(Cl)cc1 (centres unmarked) [Compound 196]
8 to 40		CCOCN(C)CCCOc1ccc(C2c3[nH]c4ccc(Br)cc4c3CC3C(=O)N(c4ccc(Cl)cc4)C(=S)N32)cc1 (centres unmarked) [Compound 197]
< 8		CN1CCN(CCCOc2ccc(C3c4[nH]c5ccc(Br)cc5c4CC4C(=O)N(c5ccc(Cl)cc5)C(=S)N43)cc2)CC1 (centres unmarked) [Compound 198]
< 8		O=C1C2Cc3c([nH]c4ccc(Br)cc34)C(c3ccc(OCCCn4ccnc4)cc3)N2C(=S)N1c1ccc(Cl)cc1 (centres unmarked) [Compound 199]
8 to 40		COc1ccc(C2c3[nH]c4ccc(Br)cc4c3CC3C(=O)N(c4ccc(C(=O)O)cc4)C(=S)N32)cc1 (centres unmarked) [Compound 200]
< 8		COc1ccc(C2c3[nH]c4ccc(Br)cc4c3CC3C(=O)N(Cc4ccc(Cl)cc4)C(=S)N32)cc1 (centres unmarked) [Compound 201]

SMILES	EC50 (Homo sapiens, HeLa) [nM]	EC50 [nM]
COc1ccc(C2c3[nH]c4ccc(Br)cc4c3CC3C(=O)N(c4ccc([N+](=O)[O-])cc4)C(=S)N32)cc1 (centres unmarked) [Compound 176]	< 8	
